From patent publication US8263598B2, “Substituted sulfonamide compounds” (Gruenenthal GmbH, priority 2008, dated 2012)

Experiments:
[1] = target: T1, human B1R receptor (hB1R) (Homo sapiens, UniProt P46663); assay: FLIPR Ca2+ assay on human bradykinin 1 receptor (CHO K1 hB1R cells); format: cell-based; settings: test substance 10 μM; CHO K1 cells with human B1R gene; agonist Lys-Des-Arg9-bradykinin 0.5 nM; compared to maximum achievable inhibition
T1 construct: host or cells: CHO K1 cells
T1 sequence (P46663 1-353): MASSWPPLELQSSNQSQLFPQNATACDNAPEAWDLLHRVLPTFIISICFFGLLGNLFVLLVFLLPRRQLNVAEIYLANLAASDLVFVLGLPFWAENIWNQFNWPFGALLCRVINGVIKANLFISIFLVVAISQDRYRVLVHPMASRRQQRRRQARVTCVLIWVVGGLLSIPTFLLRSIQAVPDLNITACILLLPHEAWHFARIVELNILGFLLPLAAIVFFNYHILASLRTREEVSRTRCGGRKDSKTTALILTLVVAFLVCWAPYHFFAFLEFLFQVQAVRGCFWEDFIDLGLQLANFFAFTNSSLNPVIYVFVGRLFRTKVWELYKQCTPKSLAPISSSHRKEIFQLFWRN
Summary of the method: (§1)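 Values are percent inhibition of agonist-evoked Ca²⁺ influx, measured by Fluo-4 fluorescence peak in FLIPR relative to maximum achievable inhibition. Compound at 10 μM was preincubated 10 min on B1R-transfected CHO K1 cells before challenge with 0.5 nM Lys-Des-Arg9-bradykinin (human) or 100 nM Des-Arg9-bradykinin (rat).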

[2] = target: T2, B1R receptor of rats (rB1R) (Rattus norvegicus, UniProt P97583); assay: FLIPR Ca2+ assay on rat bradykinin 1 receptor (CHO K1 rB1R cells); format: cell-based; settings: test substance 10 μM; CHO K1 cells with B1R gene of rats; agonist Des-Arg9-bradykinin 100 nM; compared to maximum achievable inhibition
T2 construct: host or cells: CHO K1 cells
T2 sequence (P97583 1-337): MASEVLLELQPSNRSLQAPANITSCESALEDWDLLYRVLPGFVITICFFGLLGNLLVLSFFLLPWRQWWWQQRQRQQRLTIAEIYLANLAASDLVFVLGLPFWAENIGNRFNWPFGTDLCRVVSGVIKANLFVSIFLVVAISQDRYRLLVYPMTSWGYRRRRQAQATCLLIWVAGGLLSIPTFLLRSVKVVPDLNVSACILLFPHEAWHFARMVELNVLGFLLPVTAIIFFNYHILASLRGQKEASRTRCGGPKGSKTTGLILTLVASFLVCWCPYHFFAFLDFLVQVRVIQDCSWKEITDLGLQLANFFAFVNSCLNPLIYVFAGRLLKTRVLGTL
Summary of the method: as §1

Compound	inhibition at 10 µM [1] [%]	inhibition at 10 µM [2] [%]
COc1cc(C)c(S(=O)(=O)N(CCOCC(=O)N2CCn3c(C)ccc3C2C(C)C)CC(C)C)c(C)c1C (stereo not drawn) [Example 104, N-isobutyl-N-(2-(2-(1-isopropyl-6-methyl-3,4-dihydropyrrolo[1,2-a]pyrazin-2(1H)-yl)-2-oxoethoxy)ethyl)-4-methoxy-2,3,6-trimethylbenzenesulfonamide]	93	102
Cc1cc(C)c(S(=O)(=O)N(C)CCOCC(=O)N2CCn3c(CN(C)C)ccc3C2c2ccccc2)c(C)c1 (stereo not drawn) [Example 139, N-(2-(2-(6-((dimethylamino)methyl)-1-phenyl-3,4-dihydropyrrolo[1,2-a]pyrazin-2(1H)-yl)-2-oxoethoxy)ethyl)-N,2,4,6-tetramethylbenzenesulfonamide]	102	103
COc1cc(C)c(S(=O)(=O)N(C)CCOCC(=O)N2CCn3c(Cc4cccnc4)ccc3C2)c(C)c1 [Example 174, 4-Methoxy-N,2,6-trimethyl-N-(2-(2-oxo-2-(6-(pyridin-3-ylmethyl)-3,4-dihydropyrrolo[1,2-a]pyrazin-2(1H)-yl)ethoxy)ethyl)benzenesulfonamide]	100	94
COc1cc(C)c(S(=O)(=O)N(C)CCOCC(=O)N2CCn3cccc3C2CCc2ccccc2)c(C)c1C (stereo not drawn) [Example 148, 4-methoxy-N,2,3,6-tetramethyl-N-(2-(2-oxo-2-(1-phenethyl-3,4-dihydropyrrolo[1,2-a]pyrazin-2(1H)-yl)ethoxy)ethyl)benzenesulfonamide]	100	98
COc1cc(C)c(S(=O)(=O)N(CCOCC(=O)N2CCn3c(CN(C)C)ccc3C2c2cccs2)Cc2ccccc2)c(C)c1C (stereo not drawn) [Example 121, N-benzyl-N-(2-(2-(6-((dimethylamino)methyl)-1-(thiophen-2-yl)-3,4-dihydropyrrolo[1,2-a]pyrazin-2(1H)-yl)-2-oxoethoxy)ethyl)-4-methoxy-2,3,6-trimethylbenzene-sulfonamide]	101	102
COc1c(C)cc(S(=O)(=O)N(C)CCOCC(=O)N2CCn3cccc3C2C)c(C)c1C (stereo not drawn) [Example 28, 4-methoxy-N,2,3,5-tetramethyl-N-(2-(2-(1-methyl-3,4-dihydropyrrolo[1,2-a]pyrazin-2(1H)-yl)-2-oxoethoxy)ethyl)benzenesulfonamide]	37	81
Cc1cc(C)c(S(=O)(=O)N(C)CCOCC(=O)N2CCn3cccc3C2c2ccc(C(C)(C)C)cc2)c(C)c1 (stereo not drawn) [Example 78, N-(2-(2-(1-(4-tert-butylphenyl)-3,4-dihydropyrrolo[1,2-a]pyrazin-2(1H)-yl)-2-oxoethoxy)ethyl)-N,2,4,6-tetramethylbenzenesulfonamide]	32	77
Cc1cc(C)c(S(=O)(=O)N(C)CCOCC(=O)N2CCn3cccc3C2c2ccc(Cl)nc2)c(C)c1 (stereo not drawn) [Example 68, N-(2-(2-(1-(6-chloropyridin-3-yl)-3,4-dihydropyrrolo[1,2-a]pyrazin-2(1H)-yl)-2-oxoethoxy)ethyl)-N,2,4,6-tetramethylbenzenesulfonamide]	101	100
Cc1cc(C)c(S(=O)(=O)N(C)CCOCC(=O)N2CCn3cccc3C2c2ccc(C(F)(F)F)cc2F)c(C)c1 (stereo not drawn) [Example 77, N-(2-(2-(1-(2-fluoro-4-(trifluoromethyl)phenyl)-3,4-dihydropyrrolo[1,2-a]pyrazin-2(1H)-yl)-2-oxoethoxy)ethyl)-N,2,4,6-tetramethylbenzenesulfonamide]	71	53
COc1cc(C)c(S(=O)(=O)N(C)CCOCC(=O)N2CCn3c(CN4CCN(C)CC4)ccc3C2)c(C)c1 [Example 9, 4-methoxy-N,2,6-trimethyl-N-(2-(2-(6-((4-methylpiperazin-1-yl)methyl)-3,4-dihydropyrrolo[1,2-a]pyrazin-2(1H)-yl)-2-oxoethoxy)ethyl)benzenesulfonamide]	101	102
COc1cc(C)c(S(=O)(=O)N(CCOCC(=O)N2CCn3c(CN4CCCCC4)ccc3C2c2ccccc2)Cc2ccccc2)c(C)c1 (stereo not drawn) [Example 128, N-benzyl-4-methoxy-2,6-dimethyl-N-(2-(2-oxo-2-(1-phenyl-6-(piperidin-1-ylmethyl)-3,4-dihydropyrrolo[1,2-a]pyrazin-2(1H)-yl)ethoxy)ethyl)benzene-sulfonamide]	101	103
COc1cc(C)c(S(=O)(=O)N(C)CCOCC(=O)N2CCn3c(CCc4ccncc4)ccc3C2)c(C)c1 [Example 172, 4-Methoxy-N,2,6-trimethyl-N-(2-(2-oxo-2-(6-(2-(pyridin-4-yl)ethyl)-3,4-dihydropyrrolo[1,2-a]pyrazin-2(1H)-yl)ethoxy)ethyl)benzenesulfonamide]	100	97
COc1cc(C)c(S(=O)(=O)N(CCOCC(=O)N2CCn3ccnc3C2)Cc2ccccc2)c(C)c1 [Example 46, N-benzyl-N-(2-(2-(5,6-dihydroimidazo[1,2-a]pyrazin-7(8H)-yl)-2-oxoethoxy)ethyl)-4-methoxy-2,6-dimethylbenzenesulfonamide]	41	96
COc1cc(C)c(S(=O)(=O)N(CCOCC(=O)N2CCn3c(CN(C)C)ccc3C2c2cccs2)CC(C)C)c(C)c1C (stereo not drawn) [Example 98, N-(2-(2-(6-((dimethylamino)methyl)-1-(thiophen-2-yl)-3,4-dihydropyrrolo[1,2-a]pyrazin-2(1H)-yl)-2-oxoethoxy)ethyl)-N-isobutyl-4-methoxy-2,3,6-trimethyl-benzenesulfonamide]	101	102
Cc1cc(C)c(S(=O)(=O)N(C)CCOCC(=O)N2CCn3cccc3C2c2cccnc2)c(C)c1 (stereo not drawn) [Example 67, N,2,4,6-tetramethyl-N-(2-(2-oxo-2-(1-(pyridin-3-yl)-3,4-dihydropyrrolo[1,2-a]pyrazin-2(1H)-yl)ethoxy)ethyl)benzenesulfonamide]	99	100
COc1cc(C)c(S(=O)(=O)N(C)CCOCC(=O)N2CCn3c(CN4CCOCC4)ccc3C2c2ccccc2)c(C)c1C (stereo not drawn) [Example 150, 4-methoxy-N,2,3,6-tetramethyl-N-(2-(2-(6-(morpholinomethyl)-1-phenyl-3,4-dihydropyrrolo[1,2-a]pyrazin-2(1H)-yl)-2-oxoethoxy)ethyl)benzenesulfonamide]	103	103
COc1cc(C)c(S(=O)(=O)N(C)CCOCC(=O)N2CCn3cccc3C2c2ccc(F)c(F)c2)c(C)c1C (stereo not drawn) [Example 85, N-(2-(2-(1-(3,4-difluorophenyl)-3,4-dihydropyrrolo[1,2-a]pyrazin-2(1H)-yl)-2-oxoethoxy)ethyl)-4-methoxy-N,2,3,6-tetramethylbenzenesulfonamide]	99	92
COc1cc(C)c(S(=O)(=O)N(C)CCOCC(=O)N2CCn3cc(CCc4ccncc4)nc3C2)c(C)c1 [Example 178, 4-Methoxy-N,2,6-trimethyl-N-(2-(2-oxo-2-(2-(2-(pyridin-4-yl)ethyl)-5,6-dihydroimidazo[1,2-a]pyrazin-7(8H)-yl)ethoxy)ethyl)benzenesulfonamide]	99	100
COc1cc(C)c(S(=O)(=O)N(C)CCOCC(=O)N2CCn3c(CN(C)C)ccc3C2Cc2ccccc2)c(C)c1C (stereo not drawn) [Example 151, N-(2-(2-(1-benzyl-6-((dimethylamino)methyl)-3,4-dihydropyrrolo[1,2-a]pyrazin-2(1H)-yl)-2-oxoethoxy)ethyl)-4-methoxy-N,2,3,6-tetramethylbenzene-sulfonamide]	102	103
COc1cc(C)c(S(=O)(=O)N(CCOCC(=O)N2CCn3cccc3C2c2cccc(F)c2)CC(C)C)c(C)c1C (stereo not drawn) [Example 24, N-(2-(2-(1-(3-fluorophenyl)-3,4-dihydropyrrolo[1,2-a]pyrazin-2(1H)-yl)-2-oxoethoxy)ethyl)-N-isobutyl-4-methoxy-2,3,6-trimethylbenzenesulfonamide]	32	99
CCCCC1c2ccc(CN(C)C)n2CCN1C(=O)COCCN(CC(C)C)S(=O)(=O)c1c(C)cc(OC)c(C)c1C (stereo not drawn) [Example 97, N-(2-(2-(1-butyl-6-((dimethylamino)methyl)-3,4-dihydropyrrolo[1,2-a]pyrazin-2(1H)-yl)-2-oxoethoxy)ethyl)-N-isobutyl-4-methoxy-2,3,6-trimethylbenzene-sulfonamide]	89	102
